Values of other authors, collected in US20050049209A1, “Pharmaceutical compositions for delivering macrolides” (priority 2003, published 2005).

Conditions: can be solubilized at pH<5 as salt

solubility in water: substantially insoluble
SMILES: CC[C@H]1OC(=O)[C@H](C)[C@@H](OC2CC(C)(OC)C(O)C(C)O2)[C@H](C)[C@@H](OC2OC(C)CC(N(C)C)C2O)[C@](C)(OC)C[C@@H](C)C(=O)[C@H](C)[C@@H](O)[C@]1(C)O (stereo partly shown) [Clarithromycin freebase, 6-O-methyl-erythromycin]
